The text below walks through data of article PMC8428568, “Discovery of re-purposed drugs that slow SARS-CoV-2 replication in human cells” (PLoS Pathogens, 2021).

The structures appear in SMILES notation. Counter-ions that a name gives are not always drawn. Like-named read-outs stand apart in the source and are kept apart here.

For one data set, the system named is recombinant NLuc. Type of data set: biochemical. As to conditions: for Relative Recombinant NLUC: recombinant NLuc activity relative to DMSO; for Reads Counts per second (read 1) / Reads Counts per second (read 4) / Reads Counts per second (read 3): recombinant NLuc; for Reads Counts per second (read 1): first read column; for Reads Counts per second (read 4): fourth read column; for Reads Counts per second (read 3): third read column.

The subject of data set [1] is SARS-CoV-2-ΔOrf7a-NLuc virus. Kind of data set: microbe, parasite or virus in culture. Particulars: for activity at 10 µM: Severe acute respiratory syndrome coronavirus 2, Vero, 72 h, read-out: Mean relative luminescence (n=4); for activity at 10 µM / Mean relative luminescence (n=4): 1 = untreated, 0 = total inhibition. The data set is classed as cell-based.
In data set [2] the test system is SARS-CoV-2-ΔOrf7a-NLuc virus. Kind of data set: microbe, parasite or virus in culture. The data set is classed as cell-based.
The mark [3] stands for this setting: Vero cells, 10 μM, 1 = DMSO-treated infected cells.

For `Oc1c(Cl)cc(Cl)c2cccnc12` [Chloroxine], in the data set with recombinant NLuc, the “Relative Recombinant NLUC” value was 0.9975, the “Reads Counts per second (read 1)” value came out at 380665 Counts per second, the “Reads Counts per second (read 4)” value was 374884 Counts per second and the “Reads Counts per second (read 3)” value came out at 374596 Counts per second. Further, in data set [1], the “% activity in Vero 100PFU screen” value is given as 6.5% and the activity at 10 µM is 3.55%. In the data set on Vero cells (setting [3]), this compound showed a PrestoBlue relative viability of 0.5777.

Take `C=C1/C(=C\C=C2/CCC[C@]3(C)[C@@H]([C@H](C)/C=C/[C@H](C)C(C)C)CC[C@@H]23)C[C@@H](O)C[C@@H]1O` [Doxercalciferol]: in the data set on recombinant NLuc, the “Relative Recombinant NLUC” value worked out at 0.9613, the “Reads Counts per second (read 1)” value came to 361602 Counts per second, the “Reads Counts per second (read 4)” value was 356613 Counts per second and the “Reads Counts per second (read 3)” value was determined as 370984 Counts per second. In addition, in data set [1], the “% activity in Vero 100PFU screen” value stood at 8% and the activity at 10 µM stood at 5.56%. The compound further had a PrestoBlue relative viability in the data set on Vero cells (setting [3]) of 0.5418.

On to `CC1=NN(c2ccc(C)c(C)c2)C(=O)/C1=N\Nc1cccc(-c2cccc(C(=O)O)c2)c1O` [Eltrombopag], for which, in the data set on recombinant NLuc, the “Relative Recombinant NLUC” value is on record as 0.8666, the “Reads Counts per second (read 1)” value was 331875 Counts per second, the “Reads Counts per second (read 4)” value worked out at 322913 Counts per second and the “Reads Counts per second (read 3)” value amounted to 331553 Counts per second. Also, in data set [1], the “% activity in Vero 100PFU screen” value is 3.72% and the activity at 10 µM is 0.991%. In the data set on Vero cells (setting [3]), this compound registered a PrestoBlue relative viability of 0.7191.

For `COc1cccc2c1C(=O)c1c(O)c3c(c(O)c1C2=O)C[C@@](O)(C(=O)CO)C[C@@H]3O[C@H]1C[C@H](N)[C@@H](O)[C@H](C)O1` [Epirubicin HCl], in the data set on recombinant NLuc, the “Relative Recombinant NLUC” value came out at 0.8025, the “Reads Counts per second (read 1)” value was 298948 Counts per second, the “Reads Counts per second (read 4)” value amounted to 310338 Counts per second and the “Reads Counts per second (read 3)” value was 302560 Counts per second. For the same compound, in data set [1], the “% activity in Vero 100PFU screen” value worked out at 3.44% and the activity at 10 µM was 2.8%. In the data set with Vero cells (African green monkey), this compound displayed a PrestoBlue relative viability of 0.9127.

With `CCCCCCCCc1ccc(CCC(N)(CO)CO)cc1` [Fingolimod (FTY720), Fingolimod], in the data set with recombinant NLuc, the “Relative Recombinant NLUC” value came out at 0.9393, the “Reads Counts per second (read 1)” value is given as 354171 Counts per second, the “Reads Counts per second (read 4)” value was 351555 Counts per second and the “Reads Counts per second (read 3)” value is listed as 356587 Counts per second. Further, in data set [1], the “% activity in Vero 100PFU screen” value is given as 3% and the activity at 10 µM came out at 0.757%. In addition, the PrestoBlue relative viability in the data set on Vero cells (setting [3]) amounted to 0.6911.

Consider `CC(=O)[C@]1(O)Cc2c(O)c3c(c(O)c2[C@@H](O[C@H]2C[C@H](N)[C@H](O)[C@H](C)O2)C1)C(=O)c1ccccc1C3=O` [Idarubicin HCl], for which, in the data set on recombinant NLuc, the “Relative Recombinant NLUC” value was determined as 0.861, the “Reads Counts per second (read 1)” value is 327538 Counts per second, the “Reads Counts per second (read 4)” value turned out to be 318222 Counts per second and the “Reads Counts per second (read 3)” value is 325691 Counts per second. Besides, in data set [1], the “% activity in Vero 100PFU screen” value is listed as 2.14% and the activity at 10 µM was 1.49%. Moreover, in the data set on Vero cells (setting [3]), the PrestoBlue relative viability came to 0.5406.

As for `Cc1cccc(C)c1OCC(=O)N[C@@H](Cc1ccccc1)[C@@H](O)C[C@H](Cc1ccccc1)NC(=O)[C@H](C(C)C)N1CCCNC1=O` [Lopinavir], the “effect on virus replication” value in data set [2] and in data set [1] was “failed to halt replication of SARS-CoV-2” in each case.

Regarding `NCCC(O)(P(=O)([O-])O)P(=O)([O-])O.[Na+].[Na+]` [Pamidronate Disodium], in the data set on recombinant NLuc, the “Relative Recombinant NLUC” value is recorded as 0.8313, the “Reads Counts per second (read 1)” value turned out to be 309519 Counts per second, the “Reads Counts per second (read 4)” value worked out at 313941 Counts per second and the “Reads Counts per second (read 3)” value is given as 313471 Counts per second. Besides, in data set [1], the “% activity in Vero 100PFU screen” value was 2.29% and the “Mean relative luminescence (n=4)” value amounted to 0.01648. Moreover, the PrestoBlue relative viability with Vero cells (setting [3]) is 0.5456.

In the case of `Cl.Fc1ccc([C@@H]2CCNC[C@H]2COc2ccc3c(c2)OCO3)cc1` [Paroxetine HCl], in the data set on recombinant NLuc, the “Relative Recombinant NLUC” value is given as 0.9732, the “Reads Counts per second (read 1)” value was found to be 360169 Counts per second, the “Reads Counts per second (read 4)” value was found to be 368856 Counts per second and the “Reads Counts per second (read 3)” value is recorded as 369849 Counts per second. In data set [1], the “% activity in Vero 100PFU screen” value worked out at 12% and the “Mean relative luminescence (n=4)” value turned out to be 0.09097. The same compound registered a PrestoBlue relative viability with Vero cells (setting [3]) of 1.088.

As to `CC[C@@H]([C@H](C)O)n1ncn(-c2ccc(N3CCN(c4ccc(OC[C@@H]5CO[C@@](Cn6cncn6)(c6ccc(F)cc6F)C5)cc4)CC3)cc2)c1=O` [Posaconazole], in the data set on recombinant NLuc, the “Relative Recombinant NLUC” value was found to be 0.8565, the “Reads Counts per second (read 1)” value is 325406 Counts per second, the “Reads Counts per second (read 4)” value is on record as 315077 Counts per second and the “Reads Counts per second (read 3)” value came to 324458 Counts per second. In data set [1], the “% activity in Vero 100PFU screen” value is 6% and the activity at 10 µM amounted to 5.17%. The same compound yielded a PrestoBlue relative viability in the data set on Vero cells (setting [3]) of 0.7676.

Consider `CC(C)(Sc1cc(C(C)(C)C)c(O)c(C(C)(C)C)c1)Sc1cc(C(C)(C)C)c(O)c(C(C)(C)C)c1` [Probucol], for which, in the data set with recombinant NLuc, the “Relative Recombinant NLUC” value came to 0.9023, the “Reads Counts per second (read 1)” value was 337686 Counts per second, the “Reads Counts per second (read 4)” value is recorded as 339611 Counts per second and the “Reads Counts per second (read 3)” value stood at 341300 Counts per second. Besides, in data set [1], the “% activity in Vero 100PFU screen” value was 5% and the activity at 10 µM came out at 2.23%. Further, in the data set with Vero cells (setting [3]), the PrestoBlue relative viability was found to be 0.7536.

As to `CC(C)c1nc(CN(C)C(=O)N[C@H](C(=O)N[C@@H](Cc2ccccc2)C[C@H](O)[C@H](Cc2ccccc2)NC(=O)OCc2cncs2)C(C)C)cs1` [Ritonavir], the “effect on virus replication” value in data set [2] and in data set [1] was “failed to halt replication of SARS-CoV-2” throughout.

As for `CC[C@@H](C(=O)[C@@H](C)[C@@H](O)[C@H](C)[C@@H]1O[C@@H]([C@@H](CC)C(=O)O)CC[C@@H]1C)[C@H]1O[C@]2(C=C[C@@H](O)[C@]3(CC[C@@](C)([C@H]4CC[C@](O)(CC)[C@H](C)O4)O3)O2)[C@H](C)C[C@@H]1C` [Salinomycin], in the data set with recombinant NLuc, the “Relative Recombinant NLUC” value was 0.9779, the “Reads Counts per second (read 1)” value is 365050 Counts per second, the “Reads Counts per second (read 4)” value was determined as 367850 Counts per second and the “Reads Counts per second (read 3)” value was determined as 373342 Counts per second. In data set [1], the “% activity in Vero 100PFU screen” value came to 3.75% and the activity at 10 µM was 1.89%. For the same compound, in the data set on Vero cells (setting [3]), the PrestoBlue relative viability came to 0.6121.

For `CSc1nc2cc(Cl)c(Oc3cccc(Cl)c3Cl)cc2[nH]1` [Triclabendazole], in the data set with recombinant NLuc, the “Relative Recombinant NLUC” value came out at 0.8923, the “Reads Counts per second (read 1)” value amounted to 335937 Counts per second, the “Reads Counts per second (read 4)” value is given as 339544 Counts per second and the “Reads Counts per second (read 3)” value came to 336143 Counts per second. Besides, in data set [1], the “% activity in Vero 100PFU screen” value is given as 12% and the activity at 10 µM came to 9.74%. The same compound gave a PrestoBlue relative viability in the data set with Vero cells (setting [3]) of 0.62.

In the case of `CN1CCN(CCCN2c3ccccc3Sc3ccc(C(F)(F)F)cc32)CC1.Cl.Cl` [Trifluoperazine 2HCl], in the data set with recombinant NLuc, the “Relative Recombinant NLUC” value was found to be 0.9397, the “Reads Counts per second (read 1)” value is on record as 358281 Counts per second, the “Reads Counts per second (read 4)” value amounted to 360671 Counts per second and the “Reads Counts per second (read 3)” value is given as 348422 Counts per second. Besides, in data set [1], the “% activity in Vero 100PFU screen” value was found to be 7% and the “Mean relative luminescence (n=4)” value worked out at 0.05678. Also, the PrestoBlue relative viability in the data set with Vero cells (setting [3]) is given as 0.6995.

In the case of `Br.Cc1ccc(Sc2ccccc2N2CCNCC2)c(C)c1` [Vortioxetine (Lu AA21004) HBr], in the data set on recombinant NLuc, the “Relative Recombinant NLUC” value is recorded as 0.7479, the “Reads Counts per second (read 1)” value came out at 280784 Counts per second, the “Reads Counts per second (read 4)” value was found to be 284019 Counts per second and the “Reads Counts per second (read 3)” value is 284246 Counts per second. Also, in data set [1], the “% activity in Vero 100PFU screen” value amounted to 1.39% and the “Mean relative luminescence (n=4)” value is reported as 0.007391. Besides, the PrestoBlue relative viability with Vero cells (setting [3]) was determined as 0.509.

Regarding `Cc1ccc(Sc2ccccc2N2CCNCC2)c(C)c1` [Vortioxetine], in the data set on recombinant NLuc, the “Relative Recombinant NLUC” value was 0.8732, the “Reads Counts per second (read 1)” value is 326546 Counts per second, the “Reads Counts per second (read 4)” value turned out to be 332965 Counts per second and the “Reads Counts per second (read 3)” value is 329264 Counts per second. In addition, in data set [1], the “% activity in Vero 100PFU screen” value is 6% and the activity at 10 µM was 4.21%. The compound further yielded a PrestoBlue relative viability in the data set on Vero cells (setting [3]) of 0.6088.

For `C[C@@H]1C[C@H]2[C@@H]3CCC4=CC(=O)C=C[C@]4(C)[C@@]3(F)[C@@H](O)C[C@]2(C)[C@@]1(O)C(=O)CO` [dexamethasone], the “effect on virus replication” value in data set [2] and in data set [1] was “did not demonstrate any effect on viral replication” throughout.

For the compound `C=C1CC[C@H](O)C/C1=C/C=C1\CCC[C@]2(C)[C@@H]([C@H](C)/C=C/[C@H](C)C(C)C)CC[C@@H]12` [vitamin D2], the “effect on virus replication” value in data set [2] and in data set [1] was “also reduced virus replication but did not meet all criteria” throughout.
